One assay has as its target CREBBP (Homo sapiens (Human), UniProt Q92793). Nature of the assay: AlphaScreen in-vitro binding assay for CREBBP. As to conditions: 324 nM His-CREBBP (1081-1197), acetyl-histone H4 (AcK 5, 8, 12) peptide. As for the experimental part: AlphaScreen In-Vitro Binding Assay for CREBBP
In order to assess bromodomain selectivity, we set up a binding assay using the bromodomain encoded by the CREBBP gene. […] The assay was started by stepwise addition of 4.5 μL per well of bromo domain protein (50 mM HEPES, pH 7.5, 0.005% Tween20, 0.02% BSA, 150 mM NaCl, 324 nM His-CREBBP (1081-1197) (custom production at Viva Biotech Ltd.)) and 4.5 μL per well of peptide solution (50 mM HEPES, pH 7.5, 0.005% Tween20, 0.02% BSA, 150 mM NaCl, 120 nM acetyl-histone H4 (AcK 5, 8, 12) (Biosyntan GmbH)). Reactions were incubated at 30° C. for 35 minutes. Subsequently 4.5 μL per well detection mix (50 mM HEPES, pH 7.5, 0.005% Tween20, 0.02% BSA, 150 mM NaCl, 45 μg/ml Ni-chelate acceptor beads, 45 μg/mL streptavidin-donor beads) (Perkin Elmer)) were added. After 60 minutes incubation at room temperature, plates were measured in a Perkin Elmer EnVision multilabel reader. IC50 values were determined from percent inhibition values at different compound concentrations by non-linear regression analysis.
Test compounds were dissolved in DMSO (10 mM) and transferred into 1.4 mL flat bottom or V-shaped Matrix tubes carrying a unique 2D matrix. The stock solutions were stored at […] if not used immediately. For the test procedure the vials were defrosted and identified by a scanner whereby a working sheet was generated that guided the subsequent working steps. Compound dilutions were made in 96 well plates. This format enabled the assay of maximally […] at 8 concentrations (single points) including 4 reference compounds, if desired (known BET inhibitors from the prior art, for this and other assays of the type disclosed herein). The dilution protocol included the production of “pre-dilution plates”, “master plates” and “assay plates”.
Polypropylene 96-well plates were used as pre-dilution plates. A total of 4 pre-dilution plates were prepared including 10 test compounds each on the plate positions A1-A10, one standard compound at A11 and one DMSO control at […]. All dilution steps were done on a HamiltonSTAR robot.
30 μL of individual compound dilutions including standard compound and controls of the 4 “pre-dilution plates” were transferred into a 384-well “master plate” including the following concentrations 10000, […], 1000, 300, 100, 30, 10 and 3 μM, respectively in 90% of DMSO.
Identical “assay plates” were then prepared by pipetting 50 nL each of compound dilutions of the “master plates” into 384-well “assay plates” by means of a HummingBird 384-channel dispenser. These plates were used directly for the assay which was performed in a total volume of 13.55 μL.
For orientation: Bead proximity is the source of the signal in Alpha formats.

The subject of a further assay is K-562. Nature of the assay: Cell growth inhibition assay (CellTiter-Glo), K-562. The class given is cell-based, human. The conditions noted are these: K-562 cells, 4 days; for GI50: Homo sapiens, K562, 96 h, half-maximal growth inhibition; for K-562 TGI: total growth inhibition. How it is done:
(§1) Cell Growth Inhibition Assay
(§2) The human leukemia cell lines MV-4-11, THP-1 and K-562 were employed to characterize the effect of BET inhibitors on cellular proliferation and viability. Cells were obtained from the American Type Culture Collection (ATCC) and cultured at 37° C. in a humidified 5% CO2 incubator in the following media: MV-4-11: DMEM high glucose (Animed #1-26F01-I), 10% FCS (Animed #2-01F26-I), 4 mM L-Glutamine (Animed #5-10K50), 1 mM Sodium Pyruvate (Animed # G03625P), 1× Penicillin-Streptomycin (Animed # F12478P); K-562: Iscove's MEM (Animed #1-28F16-I), 10% FCS (Animed #2-01F26-I), 4 mM L-Glutamine (Animed #5-10K50), 1× Penicillin-Streptomycin (Animed # F12478P); THP-1: RPMI-1640 (Animed #1-41F01-I), 10% FCS (Animed #2-01F26-I), 2 mM L-Glutamine (Animed #5-10K50), 10 mM HEPES (Animed #5-31F100), 1 mM Sodium Pyruvate (Animed # G03625P), 1× Penicillin-Streptomycin (Animed # F12478P). The AML lines MV-4-11 and THP-1 are very sensitive to BET inhibitors and show massive cell death upon BET inhibition (Zuber et al., Nature, 478 (2011), 524-8). Compound-mediated suppression of cell proliferation/viability was assessed by quantification of cellular ATP levels using the CellTiter-Glo (CTG) reagent (Promega). Briefly, cells were seeded in 20 μl fresh medium into 384-well plates, followed by addition of 5 μL medium containing compound dilutions at 5-fold their final intended concentration. Dose-response effects were assessed by 3-fold serial dilutions of the test compound, starting at 10 μM. Following incubation of the cells for 4 days at 37° C. and 5% CO2, the effect of inhibitors on cell viability was quantified following addition of 20 μl CTG and luminescence quantification (integration time: 100 ms) as per vendor manual, using a correspondingly equipped Tecan M200 multi-mode platereader (TECAN, Switzerland). For data analysis, the assay background value determined in wells containing medium, but no cells, was subtracted from all data points. To enable differentiation of cytotoxic from cytostatic compounds, the number of viable cells is assessed relative to that observed at the time of compound addition using a separate cell plate (day 0). The effect of a particular test compound concentration on cell proliferation/viability is expressed as percentage of the background- and day 0-corrected luminescence reading obtained for cells treated with vehicle only (DMSO, 0.1% final concentration), which is set as 100%, whereas that luminescence reading for wells containing medium is set as −100%. Compound concentrations leading to half-maximal (IC50) and total growth inhibition (TGI) were determined using standard four parameter curve fitting.

For another assay, the system named is MV-4-11. Briefly: Cell growth inhibition assay (CellTiter-Glo), MV-4-11. The class given is cell-based, human. The conditions noted are these: MV-4-11 cells, 4 days; for GI50: Homo sapiens, MV4-11, 96 h, half-maximal growth inhibition; for MV-4-11 TGI: total growth inhibition. As for the experimental part: as §1, §2
In general terms: ATP-based viability assays read luminescence as a measure of living cells.

The next assay addresses BRD4 (Homo sapiens (Human), UniProt O60885). Briefly: TR-FRET in-vitro binding assay for BRD4. As to conditions: 45 nM His-Brd4(44-477), acetyl-histone H4 (AcK 5, 8, 12, 16) peptide. How it is done:
(§3) TR-FRET In-Vitro Binding Assays for BRD2, BRD3, and BRD4: All assays were performed in 384-well microtiter plates. […] Liquid handling and incubation steps were done on an Innovadyne Nanodrop Express equipped with a robotic arm (Thermo CatX, Perkin Elmer/Caliper Twister II) and an incubator (Liconic STX40, Thermo Cytomat 2C450). The assay plates were prepared by addition of 50 nl per well of compound solution in 90% DMSO HummingBird nanodispenser (Zinsser Analytic). […] Reactions were incubated at 30° C. for 35 minutes. […] After 35 minutes incubation at 30° C., plates were measured in a Perkin Elmer EnVision multilabel reader. […] The stock solutions were stored at […] if not used immediately. For the test procedure the vials were defrosted and identified by a scanner whereby a working sheet was generated that guided the subsequent working steps. Compound dilutions were made in 96 well plates. This format enabled the assay of maximally […] at 8 concentrations (single points) including 4 reference compounds, if desired (known BET inhibitors from the prior art, for this and other assays of the type disclosed herein). The dilution protocol included the production of “pre-dilution plates”, “master plates” and “assay plates”. Polypropylene 96-well plates were used as pre-dilution plates. […] All dilution steps were done on a HamiltonSTAR robot. […] Identical “assay plates” were then prepared by pipetting 50 nL each of compound dilutions of the “master plates” into 384-well “assay plates” by means of a HummingBird 384-channel dispenser. These plates were used directly for the assay which was performed in a total volume of 13.55 μL.
(In general: Time-resolved FRET reads energy transfer from a long-lived donor to a nearby acceptor.)

The target of a further assay is BRD3 (Homo sapiens (Human), UniProt Q15059). Briefly: TR-FRET in-vitro binding assay for BRD3. As to conditions: 45 nM His-Brd3(20-477), acetyl-histone H4 (AcK 5, 8, 12, 16) peptide. How it is done: as §3
Chain of BRD3 (Q15059 20-477): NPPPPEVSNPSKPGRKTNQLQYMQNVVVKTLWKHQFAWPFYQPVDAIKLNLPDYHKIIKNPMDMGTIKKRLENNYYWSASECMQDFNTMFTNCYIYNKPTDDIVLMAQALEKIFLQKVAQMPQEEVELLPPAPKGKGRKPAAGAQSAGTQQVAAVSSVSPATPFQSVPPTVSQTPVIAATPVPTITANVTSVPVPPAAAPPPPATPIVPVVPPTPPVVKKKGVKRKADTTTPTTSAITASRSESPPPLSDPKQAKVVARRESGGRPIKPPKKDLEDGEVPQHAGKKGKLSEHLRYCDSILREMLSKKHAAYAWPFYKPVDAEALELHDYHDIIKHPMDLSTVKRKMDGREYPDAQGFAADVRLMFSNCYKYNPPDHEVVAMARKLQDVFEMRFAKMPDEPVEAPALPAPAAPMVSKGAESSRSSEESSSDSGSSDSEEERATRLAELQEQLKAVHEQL
The next assay concerns THP-1. Nature of the assay: Cell growth inhibition assay (CellTiter-Glo), THP-1. The class given is cell-based, human. As to conditions: THP-1 cells, 4 days; for GI50: Homo sapiens, 96 h, half-maximal growth inhibition; for THP-1 TGI: total growth inhibition. How it is done:
as §1, §2

pIC50: −log10 of the molar value. Bounds are passed on as bounds.

Broadly, the pIC50 is the negative decadic logarithm of the IC50, by convention in mol/L. Read a high pIC50 as a low IC50. Usually GI50 stands for the concentration that inhibits growth by half. Read a high GI50 as less potent growth inhibition.

Chain of CREBBP (Q92793 1081-1197): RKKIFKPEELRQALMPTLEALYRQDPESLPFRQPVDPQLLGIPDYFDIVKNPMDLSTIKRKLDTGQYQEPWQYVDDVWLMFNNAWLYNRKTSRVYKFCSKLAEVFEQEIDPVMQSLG

Consider `Cc1cc(N2C(=O)c3c(NC(=O)CCN(C)C)cn(C)c3C2c2ccc(Cl)cc2)nn2c(C(F)F)nnc12` (stereo not drawn) [Example 110, N-(6-(4-chlorophenyl)-5-(3-(difluoromethyl)-8-methyl-[1,2,4]triazolo[4,3-b]pyridazin-6-yl)-1-methyl-4-oxo-1,4,5,6-tetrahydropyrrolo[3,4-b]pyrrol-3-yl)-3-(dimethylamino)propanamide], for which the pIC50 on CREBBP was under 4.43; at BRD4, 7.52; at BRD3, 7.43. The GI50 with K-562 is 211 nM; in the assay on MV-4-11 it was 10 nM; in the assay with THP-1, 257 nM. Besides, in the assay with K-562, the “K-562 TGI” value stood at 5640 nM. Also, the “MV-4-11 TGI” value with MV-4-11 was found to be 25.5 nM. The “THP-1 TGI” value in the assay on THP-1 is 293.5 nM.

Consider `CNC(=O)Nc1cn(C)c2c1C(=O)N(c1cc(C)c3nnc(C(F)F)n3n1)C2c1ccc(Cl)cc1` (stereo not drawn) [Example 111, 1-(6-(4-chlorophenyl)-5-(3-(difluoromethyl)-8-methyl-[1,2,4]triazolo[4,3-b]pyridazin-6-yl)-1-methyl-4-oxo-1,4,5,6-tetrahydropyrrolo[3,4-b]pyrrol-3-yl)-3-methylurea], for which the results for the pIC50 at CREBBP, at BRD4 and on BRD3 were under 4.43, over 7.96 and 7.72, respectively. The values for the GI50 in the assay on K-562, with MV-4-11 and with THP-1 were 113 nM, 13.2 nM and 10.7 nM, respectively. In the assay on K-562, the “K-562 TGI” value is over 10000 nM. Moreover, the “MV-4-11 TGI” value in the assay on MV-4-11 worked out at 31.2 nM. Also, the “THP-1 TGI” value with THP-1 is 30.1 nM.

For the compound `Cc1cc(N2C(=O)c3c(C(=O)NCCN(C)C)cn(C)c3C2c2ccc(Cl)cc2)cc2c1nnn2C` (stereo not drawn) [Example 112, 6-(4-chlorophenyl)-5-(1,4-dimethyl-1H-benzo[d][1,2,3]triazol-6-yl)-N-(2-(dimethylamino)ethyl)-1-methyl-4-oxo-1,4,5,6-tetrahydropyrrolo[3,4-b]pyrrole-3-carboxamide], the pIC50 is 4.76 on CREBBP, 6.92 at BRD4 and 7.19 on BRD3. In addition, the GI50 is 409 nM with K-562, 19.4 nM in the assay with MV-4-11 and 39.3 nM in the assay with THP-1. Moreover, in the assay on K-562, the “K-562 TGI” value is over 10000 nM. Besides, in the assay on MV-4-11, the “MV-4-11 TGI” value came to 34.75 nM. The “THP-1 TGI” value in the assay with THP-1 worked out at 95.95 nM.

`CC(=O)Nc1cn(C)c2c1C(=O)N(c1cc(C)c3nnn(C)c3c1)C2c1ccc(Cl)cc1` (stereo not drawn) [Example 113, N-(6-(4-chlorophenyl)-5-(1,4-dimethyl-1H-benzo[d][1,2,3]triazol-6-yl)-1-methyl-4-oxo-1,4,5,6-tetrahydropyrrolo[3,4-b]pyrrol-3-yl)acetamide]: the pIC50 on CREBBP is 5.80; at BRD4, 7.89; on BRD3, 7.82. The GI50 in the assay with K-562 came to 72 nM; in the assay on MV-4-11, 13.6 nM; in the assay with THP-1, 12.9 nM. The “K-562 TGI” value in the assay on K-562 was over 10000 nM. Further, in the assay on MV-4-11, the “MV-4-11 TGI” value worked out at 27.25 nM. The “THP-1 TGI” value in the assay with THP-1 was 30.35 nM.

For the compound `CNC(=O)Nc1cn(C)c2c1C(=O)N(c1cc(C)c3nnn(C)c3c1)C2c1ccc(Cl)cc1` (stereo not drawn) [Example 114, 1-(6-(4-chlorophenyl)-5-(1,4-dimethyl-1H-benzo[d][1,2,3]triazol-6-yl)-1-methyl-4-oxo-1,4,5,6-tetrahydropyrrolo[3,4-b]pyrrol-3-yl)-3-methylurea], the pIC50 is 5.89 at CREBBP, 7.47 at BRD4 and 7.42 on BRD3. Moreover, the concentration for 50% growth inhibition (GI50) in the assay on K-562 was found to be 499 nM; in the assay on MV-4-11 it was 26.8 nM; in the assay on THP-1, 27.1 nM. Further, the “K-562 TGI” value with K-562 was over 10000 nM. Besides, the “MV-4-11 TGI” value in the assay on MV-4-11 came to 66 nM. In addition, the “THP-1 TGI” value in the assay with THP-1 was 105.2 nM.

Take `Cc1cc(N2C(=O)c3c(NC(=O)CCN(C)C)cn(C)c3C2c2ccc(Cl)cc2)cc2c1nnn2C` (stereo not drawn) [Example 115, N-(6-(4-chlorophenyl)-5-(1,4-dimethyl-1H-benzo[d][1,2,3]triazol-6-yl)-1-methyl-4-oxo-1,4,5,6-tetrahydropyrrolo[3,4-b]pyrrol-3-yl)-3-(dimethylamino)propanamide]: the results for the pIC50 on CREBBP, at BRD4 and on BRD3 were 5.41, 7.59 and 7.44, respectively. In addition, the concentration for 50% growth inhibition (GI50) in the assay on K-562 was found to be 157 nM; in the assay on MV-4-11, 16.1 nM; in the assay on THP-1 it was 29.3 nM. The “K-562 TGI” value in the assay with K-562 was over 10000 nM. In the assay with MV-4-11, the “MV-4-11 TGI” value was found to be 25.7 nM. Besides, the “THP-1 TGI” value with THP-1 stood at 79 nM.

For the origin of these results see patent publication US9550796B2, “Pyrrolopyrrolone derivatives and their use as BET inhibitors” (NOVARTIS AG, priority 2013, dated 2017).
